Measurements from ChEMBL document CHEMBL3351440, “Synthesis of diethylamino-curcumin mimics with substituted triazolyl groups and their sensitization effect of TRAIL against brain cancer cells” (2014).
Active and inactive are the calls of the source. No cut-off for these calls is given here.

Tests used:
[1] = Induction of apoptosis in human CRT-MG cells assessed as cell death at 10 uM after 24 hrs by LDH release assay; format: functional
CRT-MG [2] = experiment: (§1) Cytotoxicity against TRAIL-induced human CRT-MG cells at 50 uM after 24 hrs; format: functional
[3] = (§2) Induction of TRAIL-mediated human CRT-MG cell death at 10 uM after 24 hrs by LDH release assay relative to control; format: functional
CRT-MG [4] = experiment: as §2; format: functional
LNCaP = experiment: Cytotoxicity against TRAIL-induced human LNCAP cells assessed as caspase 3 activity at 10 uM after 48 hrs by MTS colorimetric assay relative to control; format: functional
[5] = Cytotoxicity against TRAIL-induced human U87MG cells assessed as cleavage of procaspase 3/8 at 10 uM after 48 hrs by MTS colorimetric assay; format: functional, U-87MG ATCC
[6] = Cytotoxicity against TRAIL-induced human U251MG cells assessed as cleavage of procaspase 3/8 at 10 uM after 48 hrs by MTS colorimetric assay; format: functional, U-251
[7] = Induction of apoptosis in human CRT-MG cells assessed as inhibition of cell proliferation at 10 uM after 24 hrs; format: functional
[8] = as §1; format: functional

Compound	Activity [1] [%]	Activity (CRT-MG [4])	other results
CCN(CC)c1ccc(/C=C/C(=O)c2cccc(-n3cc(-c4ccccc4)nn3)c2)cc1	14.3		Activity (CRT-MG [2]): Active; fold change (FC) [3]: 2.5
CCN(CC)c1ccc(/C=C/C(=O)c2cccc(-n3cc(-c4ccc(C)cc4)nn3)c2)cc1	<20	Active	
CCN(CC)c1ccc(/C=C/C(=O)c2cccc(-n3cc(-c4cc(F)cc(F)c4)nn3)c2)cc1	<20		
C=C(C)c1cn(-c2cccc(C(=O)/C=C/c3ccc(N(CC)CC)cc3)c2)nn1	<20	Active	
CCN(CC)c1ccc(/C=C/C(=O)c2cccc(-n3cc(-c4cccc(Cl)c4)nn3)c2)cc1	<20	Active	
CCN(CC)c1ccc(/C=C/C(=O)c2cccc(-n3cc(-c4ccc(F)cc4)nn3)c2)cc1	<20	Active	
CCN(CC)c1ccc(/C=C/C(=O)c2cccc(-n3cc(-c4ccccc4C(F)(F)F)nn3)c2)cc1	<20	Active	Activity (CRT-MG [2]): Active
CCN(CC)c1ccc(/C=C/C(=O)c2cccc(-n3cc(-c4ccc(OC)cc4)nn3)c2)cc1	<20	Active	
COc1cc(/C=C/C(=O)CC(=O)/C=C/c2ccc(O)c(OC)c2)ccc1O [CURCUMIN]			Ratio (LNCaP): 2; Activity [5]: 45%; Activity [6]: 60%
CCN(CC)c1ccc(/C=C/C(=O)c2cccc(N=[N+]=[N-])c2)cc1	27.8		inhibition at 10 µM [7]: 55.6%; Activity [3]: 78.3%
CCN(CC)c1ccc(/C=C/C(=O)c2cccc(-n3cc(-c4ccc(Br)cc4)nn3)c2)cc1		Active	Activity [8]: <20%
CCCCCc1ccc(-c2cn(-c3cccc(C(=O)/C=C/c4ccc(N(CC)CC)cc4)c3)nn2)cc1	<20	Active	
CCN(CC)c1ccc(/C=C/C(=O)c2cccc(-n3cc(C(C)(C)O)nn3)c2)cc1	13.3		Activity [8]: <20%; fold change (FC) [3]: 2.5
